Data taken from patent US11931335B2, “Enhancing autophagy or increasing longevity by administration of urolithins or precursors thereof” (Amazentis SA, priority 2012, dated 2024).
“Also recorded” adds a separate entry of the source. Read-outs that look alike come from different tables or passages of the source.

Legend:
[1] = system: C. elegans wild-type Bristol N2; conditions: Genotype: N2, fed live E. coli (OP50), cited from earlier work
[2] = system: C. elegans wild type (N2, Bristol); test: Mobility tracking of C. elegans during aging; assay type: in vivo; conditions: days 1, 3, 5 and 8 of adulthood; 50 μM; FIG. 12
Description: To examine the effect of urolithins on muscle activity during aging, C. elegans mobility was examined over time. Synchronized populations of wild-type nematodes were prepared by standard methods and cultivated at 20° C. on NGM agar containing E. Coli (OP50) with or without test compounds (ellagic acid (EA), urolithins A (UA), and B (UB)). At Day 0, five plates were prepared, each containing 10 young adult worms. Worms were assayed for mobility at different ages, day 1, 3, 5 and 8 of adulthood. The wild type (N2, Bristol) worm strain was employed for these studies.
For C. elegans movement tracking, 45 seconds of video were recorded using a Nikon DS-L2/DS-Fi1 camera and controller setup, attached to both a computer and a standard bright field microscope, tracking an entire plate of 10 worms, with 5 plates per condition. The movement of worms during this time was calculated using an adapted version of the freely-available software Parallel Worm Tracker for MATLAB. The total movement over the 45 second tracking was averaged across all worms for each condition. This experiment was repeated twice with between 40 and 70 worms per condition.

[3] = system: C. elegans wild-type Bristol N2; test: Lifespan of wild-type C. elegans; assay type: in vivo; conditions: concentration of 50 µM; exposed from eggs; FIG. 4
Description: C. elegans strains were cultured at 20° C. on nematode growth media (NGM) agar plates seeded with E. coli strain OP50. Strain used was wild-type Bristol N2 provided by the Caenorhabditis Genetics Center (University of Minnesota). All Compounds were dissolved in DMSO. Animals were exposed to compounds from eggs on plates seeded with live OP50 bacteria. Control plates were prepared with the corresponding concentrations of DMSO (0.1%). For lifespan tests, worms were observed using a Nikon SMZ1500 stereomicroscope (Nikon, Melville, NY, USA). […] After 3 days (corresponding to day 0), newly developed 60 to 100 L4 worms were used per condition, scored and transferred to fresh plates every 3 days starting from day 1 (young adult worms). All lifespan experiments were performed at 20° C.
Lifespan assays were performed with (A) wild-type (N2), (B) sir-2.1(ok434) mutant, (C) aak-2(ok524), (D) daf-16(mu86), (E) eat-2(ad465) and (F) daf-2(e1370) mutant strains of C. elegans maintained during their full life on plates supplemented with either 50 μM of urolithin A or with a control treatment and seeded with OP50 bacteria. Control plates without urolithin A contained an equivalent concentration of DMSO. Worm lifespan assays were performed at 20° C.

[4] = system: undifferentiated C2C12 mouse myoblasts; test: LC3B flow cytometry in C2C12 myoblasts; assay type: cell-based; conditions: 100 μM, 24 hrs, FIG. 26
Description: To determine the ability of urolithin A to induce autophagy in mouse muscle cells, undifferentiated C2C12 mouse myoblasts were seeded in T25 flasks and incubated overnight. Cells were incubated in 5% CO2 at 37° C. These cells were treated with one of the urolithins-urolithin A (UA), urolithin B (UB), urolithin C (UC) or urolithin D (UD)—dissolved in a 0.1% solution of DMSO for 24 hours. In one experiment UA, UB, UC and UD were dosed at a concentration of 100 μM for C2C12 myoblast treatment. In a separate study, C2C12 myoblasts were incubated at increasing concentrations of UA (10 μM, 50 μM and 100 μM). For each experiment a control culture was treated with 0.1% DMSO for the same period and served as the untreated control. In the final 30 minutes of incubation, lysosome degradation inhibitor was added to the culture. The cells were then washed with phosphate buffer solution and then treated with a 1% solution of trypsin enzyme to remove the adhesive cells from the cell culture dishes. The cells were then treated with EMD Millipore selective permeabilization reagent to permeabilize the cells so as to make the internal cellular proteins accessible to antibody treatment. Cells were then incubated with antibody to LC3B according to kit protocol (EMD Millipore FlowCellect™ Autophagy LC3 Antibody-based Assay Kit (Cat no. FCCH100171)). The cells were then washed and resuspended in the kit assay buffer. The resulting cells were then run through a flow cytometer and LC3B-FITC fluorescence was quantified to measure the level of LC3B in C2C12 cells for the various treatments. When cells undergo autophagy their intracellular levels of LC3-II increase which is detected by this method. This autophagy can be detected by fluorescent antibody labeling of LC3B, which can be measured quantitatively using flow cytometry. An increase in cellular autophagy is reflected by an increasing signal in the histogram of LC3B FITC.

C. elegans [5] = test: Time-lapse motility of C. elegans; assay type: in vivo; conditions: 50 μM; days 8, 14 and 16; FIG. 13
From the text: Briefly, worms were observed using a Nikon SMZ1500 stereomicroscope (Nikon, Melville, NY, USA). […] Experiments were repeated three times.

C. elegans [6] = test: Pharyngeal pumping in C. elegans; assay type: in vivo; conditions: day 14 (aged worms); 50 μM; FIG. 11
Description: To examine the effect of urolithins on muscle function, pharyngeal pumping was examined in C. elegans worms at day 7 and day 14. Worms were observed using a Nikon SMZ1500 stereomicroscope (Nikon, Melville, NY, USA). Ten L4 worms were transferred on plates containing NGM medium with vehicle (DMSO 0.1%, final concentration) or the compound of interest (urolithin A (UA), urolithin B (UB), urolithin C (UC), urolithin D (UD)) dissolved in DMSO (final concentration 50 μM) and seeded with E. coli RNAi clones as indicated. After 3 days (corresponding to day 0), newly developed 60 to 100 L4 worms were used per condition, scored and transferred to fresh plates every 3 days starting from day 1 (young adult worms). Experiments were performed at 20° C.
The pharyngeal pumping rates at day 7 and 14 were measured for 10 worms by transferring single worms to an unseeded plate and scoring for pharyngeal pumping under a dissecting microscope for 30 seconds. The pharyngeal pumping rates were then computed by extrapolating the pumping made by worms during this 30 second period.

NCCCCNCCCN [Spermidine, spermidine]
Mean Life Extension (%) ([1]; dose 200 μM): 15%

O=c1oc2c(O)c(O)cc3c(=O)oc4c(O)c(O)cc1c4c23 [Ellagic acid, ellagic acid]
age related mobility decline [2]: no effect | effect on lifespan in C. elegans [3]: no effects

O=c1oc2c(O)c(O)ccc2c2cc(O)c(O)cc12 [Urolithin D, urolithin D]
LC3B signal (shift of the histogram) ([4]; listed as UD): increasing signal of LC3B; also recorded: increase in autophagy | effect on lifespan in C. elegans [3]: extended the lifespan

Oc1ccc(/C=C/c2cc(O)cc(O)c2)cc1 [Resveratrol, 3,5,4′-trihydroxy-trans-stilbene]
Mean Life Extension (%) ([1]; dose 100 μM): 6.2-12.6% | Mean Life Extension (%) ([1]; dose 100 μM, listed as resveratrol): 12.6%

CN(C)C(=N)NC(=N)N [Metformin, N,N-Dimethylimidodicarbonimidic diamide]
Mean Life Extension (%) ([1]; dose 50 μM): 27%

CO[C@H]1C[C@@H]2CC[C@@H](C)[C@@](O)(O2)C(=O)C(=O)N2CCCC[C@H]2C(=O)O[C@H]([C@H](C)C[C@@H]2CC[C@@H](O)[C@H](OC)C2)CC(=O)[C@H](C)/C=C(\C)[C@@H](O)[C@@H](OC)C(=O)[C@H](C)C[C@H](C)/C=C/C=C/C=C/1C [Rapamycin, (3S,6R,7E,9R,10R,12R,14S,15E,17E,19E,21S,23S,26R,27R,34aS)-9,10,12,13,14,21,22,23,24,25,26,27,32,33,34,34a-hexadecahydro-9,27-dihydroxy-3-[(1R)-2-[(1S,3R,4R)-4-hydroxy-3-methoxycyclohexyl]-1-methylethyl]-10,21-dimethoxy-6,8,12,14,20,26-hexamethyl-23,27-epoxy-3H-pyrido[2,1-c][1, 4]-oxaazacyclohentriacontine-1,5,11,28,29(4H,6H,31H)-pentone]
Mean Life Extension (%) ([1]; dose 100 μM): 19%

O=c1oc2cc(O)ccc2c2cc(O)c(O)cc12 [Urolithin C, urolithin C]
LC3B signal (shift of the histogram) ([4]; listed as UC): increasing signal of LC3B; also recorded: increase in autophagy | effect on lifespan in C. elegans [3]: extended the lifespan

O=c1oc2cc(O)ccc2c2ccccc12 [Urolithin B, urolithin B]
age related mobility decline [2]: marked ability to reduce muscle function decline | motility (time-lapse traces) (C. elegans [5]): strongest effect | pharyngeal pumping (muscle function) (C. elegans [6]): decreases the age related decline in muscle activity | LC3B signal (shift of the histogram) ([4]; listed as UB): increasing signal of LC3B; also recorded: increase in autophagy | effect on lifespan in C. elegans [3]: extended the lifespan
